Where “and” joins values, the source holds several entries; their conditions need not be identical. Equal entries are not always repeated.
Experiment: molar heat capacity at constant pressure
Conditions: 101.33 kPa, Crystal, PPMS instrument (Quantum Design)

O=P([O-])([O-])[O-].[La+3] [lanthanum orthophosphate]
Conditions	molar heat capacity at constant pressure
5.974 K	0.03623 J/K/mol
6.057 K	0.03765 J/K/mol
6.065 K	0.03776 J/K/mol
6.165 K	0.03972 J/K/mol
6.17 K	0.03972 J/K/mol
6.171 K	0.03961 J/K/mol
6.367 K	0.04348 J/K/mol
6.37 K	0.04345 J/K/mol
6.373 K	0.04366 J/K/mol
6.438 K	0.04486 J/K/mol
6.567 K	0.04741 J/K/mol
6.572 K	0.04748 J/K/mol
6.574 K	0.04752 J/K/mol and 0.04753 J/K/mol
6.768 K	0.05148 J/K/mol
6.773 K	0.05174 J/K/mol
6.774 K	0.05167 J/K/mol
6.812 K	0.05274 J/K/mol
6.968 K	0.0563 J/K/mol
6.973 K	0.0564 J/K/mol
6.976 K	0.05661 J/K/mol
7.087 K	0.05926 J/K/mol
7.169 K	0.06123 J/K/mol
7.175 K	0.06142 J/K/mol
7.176 K	0.06139 J/K/mol
7.188 K	0.06178 J/K/mol
7.371 K	0.06581 J/K/mol
7.377 K	0.06689 J/K/mol
7.381 K	0.06684 J/K/mol
7.56 K	0.07178 J/K/mol
7.57 K	0.07164 J/K/mol
7.575 K	0.072 J/K/mol
7.579 K	0.07223 J/K/mol
7.604 K	0.07273 J/K/mol
7.774 K	0.07756 J/K/mol
7.778 K	0.07802 J/K/mol
7.779 K	0.07794 J/K/mol
7.937 K	0.08278 J/K/mol
7.975 K	0.08393 J/K/mol
7.98 K	0.08397 J/K/mol
7.983 K	0.08418 J/K/mol
8.119 K	0.08872 J/K/mol
8.176 K	0.09007 J/K/mol
8.182 K	0.09043 J/K/mol
8.184 K	0.09022 J/K/mol
8.313 K	0.09473 J/K/mol
8.378 K	0.09678 J/K/mol
8.383 K	0.09686 J/K/mol
8.385 K	0.09715 J/K/mol
8.584 K	0.1041 J/K/mol
8.589 K	0.1043 J/K/mol
8.592 K	0.1046 J/K/mol
8.642 K	0.1065 J/K/mol
8.696 K	0.1085 J/K/mol
8.785 K	0.1119 J/K/mol
8.792 K	0.1125 J/K/mol
8.794 K	0.1122 J/K/mol
8.987 K	0.1198 J/K/mol
8.993 K	0.1201 J/K/mol
8.996 K	0.1202 J/K/mol
9.07 K	0.1232 J/K/mol
9.158 K	0.127 J/K/mol
9.188 K	0.1284 J/K/mol
9.196 K	0.131 J/K/mol and 0.1286 J/K/mol
9.198 K	0.1286 J/K/mol
9.393 K	0.1371 J/K/mol
9.398 K	0.1378 J/K/mol
9.4 K	0.1349 J/K/mol
9.447 K	0.1398 J/K/mol
9.586 K	0.1462 J/K/mol
9.598 K	0.1469 J/K/mol
9.602 K	0.1471 J/K/mol
9.675 K	0.1505 J/K/mol
9.792 K	0.1565 J/K/mol
9.8 K	0.1568 J/K/mol
9.805 K	0.157 J/K/mol
9.822 K	0.1578 J/K/mol

— the NIST ThermoML archive (doi:10.1016/j.jct.2004.07.031)
